Measurements taken from PubChem BioAssay AID248 (DTP/NCI, 2004).
Values joined by “and” are separate entries in the source; they are usually repeats but may differ in a detail not shown here. Equal entries are not always repeated. Inconclusive results and toxic doses are left out. No stated cut-off is given here; in the data, active means T/C of 150% or more; inactive means T/C below 125%.

System: L1210 leukemia ip in BDF1 mice, survival T/C
Assay: NCI In Vivo Anticancer Drug Screen. Data for tumor model L1210 Leukemia (intraperitoneal) in B6D2F1 (BDF1) mice
Details: endpoint: mean survival time, higher = longer survival
In short: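 Value reflects the ratio of survival in compound-treated mice to survival in vehicle-treated controls, with both groups carrying the same transplanted tumor.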

[1] = dose: 100.0 mg/kg/injection, schedule: Q01DX001 (ip), vehicle: saline
[2] = dose: 200.0 mg/kg/injection, schedule: Q01DX001 (ip), vehicle: saline
[3] = dose: 400.0 mg/kg/injection, schedule: Q01DX001 (ip), vehicle: saline
[4] = dose: 200.0 mg/kg/injection, schedule: Q01DX009 (ip), vehicle: Klucel (hydroxypropylcellulose) (HPC)
[5] = dose: 100.0 mg/kg/injection, schedule: Q04DX002 (ip), vehicle: Klucel (hydroxypropylcellulose) (HPC)
[6] = dose: 200.0 mg/kg/injection, schedule: Q04DX002 (ip), vehicle: Klucel (hydroxypropylcellulose) (HPC)
[7] = dose: 400.0 mg/kg/injection, schedule: Q04DX002 (ip), vehicle: Klucel (hydroxypropylcellulose) (HPC)
[8] = dose: 50.0 mg/kg/injection, schedule: Q01DX001 (ip), vehicle: saline
[9] = dose: 100.0 mg/kg/injection, schedule: Q01DX009 (ip), vehicle: saline
[10] = dose: 200.0 mg/kg/injection, schedule: Q01DX009 (ip), vehicle: saline
[11] = dose: 100.0 mg/kg/injection, schedule: Q01DX009 (ip), vehicle: Klucel (hydroxypropylcellulose) (HPC)
[12] = dose: 100.0 mg/kg/injection, schedule: Q04DX003 (ip), vehicle: Klucel (hydroxypropylcellulose) (HPC)
[13] = dose: 200.0 mg/kg/injection, schedule: Q04DX003 (ip), vehicle: Klucel (hydroxypropylcellulose) (HPC)
[14] = dose: 400.0 mg/kg/injection, schedule: Q01DX009 (ip), vehicle: Klucel (hydroxypropylcellulose) (HPC)
[15] = dose: 400.0 mg/kg/injection, schedule: Q04DX003 (ip), vehicle: Klucel (hydroxypropylcellulose) (HPC)
[16] = dose: 12.5 mg/kg/injection, schedule: Q01DX009 (ip), vehicle: other
[17] = dose: 25.0 mg/kg/injection, schedule: Q01DX009 (ip), vehicle: other
[18] = dose: 50.0 mg/kg/injection, schedule: Q01DX009 (ip), vehicle: other

Measured: T/C

CCCOC(=O)CCOC
inactive: [1] 94 % of control | [2] 103 % of control | [3] 103 % of control

CC(=O)Oc1ccc2c3c(ccc2c1)CCCC3
inactive: dose: 50.0 mg/kg/injection, schedule: Q01DX009 (ip), vehicle: Klucel (hydroxypropylcellulose) (HPC) 90 % of control | [4] 90 % of control

CC(C)c1ccc(NC(=S)NCCO)cc1
inactive: [5] 105 % of control | [6] 105 % of control | [7] 105 % of control

C=C(NC(=O)C(=C)NC(=O)c1csc(C2=NC3c4csc(n4)C4NC(=O)c5csc(n5)C(C(C)(O)C(C)O)NC(=O)C5CSC(=N5)/C(=C/C)NC(=O)C(C(C)O)NC(=O)c5csc(n5)C3(CC2)NC(=O)C(C)NC(=O)C(=C)NC(=O)C(=C)NC(=O)C(C(C)C)NC2C=Cc3c(C(C)O)cc(nc3C2O)C(=O)OC4C)n1)C(N)=O (stereo unspecified)
inactive: dose: 3.12 mg/kg/injection, schedule: Q01DX009 (ip), vehicle: saline 101 % of control | dose: 6.25 mg/kg/injection, schedule: Q01DX009 (ip), vehicle: saline 117 % of control

COc1cc(C(=O)O)cc(OC)c1OC
inactive: dose: 100.0 mg/kg/injection, schedule: Q04DX002 (ip), vehicle: other 103 % of control | dose: 200.0 mg/kg/injection, schedule: Q04DX002 (ip), vehicle: other 98 % of control | dose: 400.0 mg/kg/injection, schedule: Q04DX002 (ip), vehicle: other 98 % of control

CC1(C)OC2OC(COC(=O)c3ccccc3)C(=O)C2O1 (stereo unspecified)
inactive: [8] 101 % of control | [1] 106 % of control | [2] 101 % of control | [3] 98 % of control

[O]=[Sn]([OH])[OH]
inactive: [9] 97 % of control | [10] 94 % of control

CC(CCC(=O)O)(c1cc(Cl)c(O)c(Cl)c1)c1cc(Cl)c(O)c(Cl)c1
inactive: dose: 100.0 mg/kg/injection, schedule: Q01DX009 (ip), vehicle: gum acacia 95 % of control | dose: 100.0 mg/kg/injection, schedule: Q04DX003 (ip), vehicle: gum acacia 100 % of control | dose: 200.0 mg/kg/injection, schedule: Q01DX009 (ip), vehicle: gum acacia 103 % of control | dose: 200.0 mg/kg/injection, schedule: Q04DX003 (ip), vehicle: gum acacia 92 % of control | dose: 400.0 mg/kg/injection, schedule: Q04DX003 (ip), vehicle: gum acacia 96 % of control

CC(=O)c1c(O)cc(C)[nH]c1=O
inactive: [1] 86 % of control | [2] 89 % of control | [3] 86 % of control

Cc1ccc(NC(=O)OC/C=C/c2ccccc2)c(Cl)c1
inactive: [11] 99 % of control | [4] 97 % of control

COc1ccc(COC(=O)Nc2cccc(Cl)c2)cc1
inactive: dose: 100.0 mg/kg/injection, schedule: Q01DX001 (ip), vehicle: Klucel (hydroxypropylcellulose) (HPC) 111 % of control | [11] 93 % of control and 97 % of control | [5] 100 % of control | [12] 108 % of control | dose: 200.0 mg/kg/injection, schedule: Q01DX001 (ip), vehicle: Klucel (hydroxypropylcellulose) (HPC) 101 % of control | [4] 90 % of control and 92 % of control | [6] 104 % of control | [13] 102 % of control | dose: 400.0 mg/kg/injection, schedule: Q01DX001 (ip), vehicle: Klucel (hydroxypropylcellulose) (HPC) 95 % of control | [14] 93 % of control and 90 % of control | [15] 111 % of control

CC(C)(SCc1ccccc1)C(NC(=O)OCc1ccccc1)C(=O)O (stereo unspecified)
inactive: dose: 12.5 mg/kg/injection, schedule: Q01DX009 (ip), vehicle: DMSO 92 % of control | dose: 25.0 mg/kg/injection, schedule: Q01DX009 (ip), vehicle: DMSO 92 % of control | dose: 50.0 mg/kg/injection, schedule: Q01DX009 (ip), vehicle: DMSO 88 % of control | dose: 100.0 mg/kg/injection, schedule: Q04DX002 (ip), vehicle: DMSO 95 % of control | dose: 200.0 mg/kg/injection, schedule: Q04DX002 (ip), vehicle: DMSO 97 % of control

O=C(CBr)c1cc2ncccc2c2ccccc12
inactive: [16] 90 % of control | [17] 94 % of control | [18] 102 % of control

OC(CNc1ccccc1)CN1CCCC1 (stereo unspecified)
inactive: dose: 100.0 mg/kg/injection, schedule: Q04DX003 (ip), vehicle: saline 89 % of control | dose: 200.0 mg/kg/injection, schedule: Q04DX003 (ip), vehicle: saline 94 % of control

Cc1ccc2[nH]c(=S)n(-c3cccc(C(F)(F)F)c3)c(=O)c2c1
inactive: [11] 96 % of control | [4] 104 % of control | [14] 100 % of control

O=C1OC(C(O)CO)C(O)C1O (stereo unspecified)
inactive: dose: 25.0 mg/kg/injection, schedule: Q04DX002 (ip), vehicle: saline with Tween-80 101 % of control | [8] 94 % of control | dose: 50.0 mg/kg/injection, schedule: Q04DX002 (ip), vehicle: saline with Tween-80 101 % of control | [1] 100 % of control | dose: 100.0 mg/kg/injection, schedule: Q04DX002 (ip), vehicle: saline with Tween-80 96 % of control | [2] 100 % of control | dose: 200.0 mg/kg/injection, schedule: Q04DX002 (ip), vehicle: saline with Tween-80 101 % of control | [3] 92 % of control

C#Cc1ccc([N+](=O)[O-])cc1
inactive: [11] 95 % of control | [12] 88 % of control | [4] 94 % of control | [13] 91 % of control | [14] 95 % of control | [15] 93 % of control

O=S1(=O)C(c2ccccc2)=C1c1ccccc1
inactive: dose: 12.5 mg/kg/injection, schedule: Q01DX001 (ip), vehicle: other 100 % of control | [16] 95 % of control | dose: 25.0 mg/kg/injection, schedule: Q01DX001 (ip), vehicle: other 94 % of control and 100 % of control | [17] 101 % of control | dose: 50.0 mg/kg/injection, schedule: Q01DX001 (ip), vehicle: other 97 % of control and 101 % of control | [18] 86 % of control

Cc1ccncc1C#N
inactive: dose: 6.0 mg/kg/injection, schedule: Q04DX003 (ip), vehicle: saline 98 % of control | dose: 12.0 mg/kg/injection, schedule: Q04DX003 (ip), vehicle: saline 98 % of control | dose: 24.0 mg/kg/injection, schedule: Q04DX003 (ip), vehicle: saline 98 % of control

N=C(N)c1cccc(NC(=O)c2cccc(C(=O)Nc3cccc(C(=N)N)c3)c2)c1
inactive: dose: 15.0 mg/kg/injection, schedule: Q01DX Z (ip), vehicle: saline 95 % of control | dose: 30.0 mg/kg/injection, schedule: Q01DX Z (ip), vehicle: saline 98 % of control | dose: 60.0 mg/kg/injection, schedule: Q01DX Z (ip), vehicle: saline 98 % of control | dose: 120.0 mg/kg/injection, schedule: Q01DX Z (ip), vehicle: saline 93 % of control | dose: 125.0 mg/kg/injection, schedule: Q01DX Z (ip), vehicle: water 96 % of control | dose: 250.0 mg/kg/injection, schedule: Q01DX Z (ip), vehicle: water 98 % of control | dose: 500.0 mg/kg/injection, schedule: Q01DX Z (ip), vehicle: water 104 % of control

CCOc1cccc2c1OC(COS(=O)(=O)c1ccc(C)cc1)CO2 (stereo unspecified)
inactive: [1] 95 % of control | [2] 95 % of control | [3] 95 % of control

O=C(O)c1cccc([N+](=O)[O-])c1C(=O)O
inactive: dose: 100.0 mg/kg/injection, schedule: Q01DX009 (ip), vehicle: saline with Tween-80 95 % of control | [5] 98 % of control | dose: 200.0 mg/kg/injection, schedule: Q01DX009 (ip), vehicle: saline with Tween-80 95 % of control | [6] 88 % of control | [7] 88 % of control

CN(C)C=Nc1ccc(Cl)c(Cl)c1
inactive: dose: 12.5 mg/kg/injection, schedule: Q01DX009 (ip), vehicle: saline 90 % of control | dose: 25.0 mg/kg/injection, schedule: Q01DX009 (ip), vehicle: saline 90 % of control | dose: 50.0 mg/kg/injection, schedule: Q01DX009 (ip), vehicle: saline 90 % of control | dose: 100.0 mg/kg/injection, schedule: Q04DX003 (ip), vehicle: saline with Tween-80 97 % of control

CC(C)(C)CCN1C(=O)c2ccccc2C1=O
inactive: [1] 94 % of control | [9] 100 % of control | [2] 92 % of control | [10] 97 % of control | [3] 92 % of control | dose: 400.0 mg/kg/injection, schedule: Q01DX009 (ip), vehicle: saline 97 % of control
